For one assay, the target named is T1, Oxytocin receptor (Homo sapiens, UniProt P30559).
T1 sequence (P30559 whole entry): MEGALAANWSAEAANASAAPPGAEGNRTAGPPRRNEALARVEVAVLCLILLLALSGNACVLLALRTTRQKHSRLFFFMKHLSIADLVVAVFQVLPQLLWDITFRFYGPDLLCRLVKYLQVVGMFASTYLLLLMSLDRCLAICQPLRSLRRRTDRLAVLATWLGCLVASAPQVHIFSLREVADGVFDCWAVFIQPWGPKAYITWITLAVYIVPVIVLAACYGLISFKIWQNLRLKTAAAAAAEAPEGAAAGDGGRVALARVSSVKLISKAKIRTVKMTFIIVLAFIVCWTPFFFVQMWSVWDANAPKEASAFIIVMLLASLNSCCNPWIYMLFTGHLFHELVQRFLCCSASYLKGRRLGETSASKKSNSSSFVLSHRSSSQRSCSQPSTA
The experiment in a line: Agonist activity at human OTR expressed in CHO cells assessed as calcium mobilization measured after 30 mins by Fluo-4-AM dye based FLIPR assay. In kind it is functional, cell-based. On the technique in general: A change in cytosolic calcium serves as a functional read-out for many receptors and channels.

For the next assay, the target named is Vasopressin V1a receptor (Homo sapiens, UniProt P37288). The experiment in a line: Agonist activity at human V1a receptor expressed in CHO cells assessed as calcium mobilization measured after 30 mins by Fluo-4-AM dye based FLIPR assay. Type of assay: cell-based.
Another assay addresses T2, Vasopressin V1b receptor (Homo sapiens, UniProt P47901).
T2 sequence (P47901 whole entry): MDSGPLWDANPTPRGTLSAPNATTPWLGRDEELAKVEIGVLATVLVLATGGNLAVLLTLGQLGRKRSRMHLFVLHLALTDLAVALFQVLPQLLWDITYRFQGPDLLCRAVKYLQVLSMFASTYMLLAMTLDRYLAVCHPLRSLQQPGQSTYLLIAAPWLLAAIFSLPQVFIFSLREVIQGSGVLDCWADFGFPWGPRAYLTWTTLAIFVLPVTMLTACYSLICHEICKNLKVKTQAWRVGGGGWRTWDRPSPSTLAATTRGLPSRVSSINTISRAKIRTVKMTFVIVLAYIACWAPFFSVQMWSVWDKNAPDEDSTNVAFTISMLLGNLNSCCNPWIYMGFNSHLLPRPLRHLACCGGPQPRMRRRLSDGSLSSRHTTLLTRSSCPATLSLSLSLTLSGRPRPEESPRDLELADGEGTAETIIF
Nature of the assay: Agonist activity at human V1b receptor expressed in CHO cells assessed as calcium mobilization measured after 30 mins by Fluo-4-AM dye based FLIPR assay. Type of assay: cell-based.

The species entered for assay [1] is Homo sapiens. Nature of the assay: Selectivity ratio of EC50 for human V1a receptor to EC50 for human OTR.
Assay [2] is filed under the species Homo sapiens. Nature of the assay: Selectivity ratio of EC50 for human V1b receptor to EC50 for human OTR.

Numbered stars: 1 amine (or outer) side, 2 acyl side, 3 side chain; on linkers, the order of the positions; unused ones are H or OH. Bridge positions count the residues as written; N and C are the ends. Square brackets hold non-standard residues; d marks the D form. Peptide text beside a SMILES is read from it. Hyp = O=C(O)[C@@H]1C[C@@H](O)CN1; tBuAla = CC(C)(C)C[C@H](N)C(=O)O; Suc = O=C(CCC(=O)[*:2])[*:1]; X1 = O=C(CCC[*:2])[*:1]; Dap = NC[C@H](N)C(=O)O; azaGly = NNC(=O)O; Mpa = O=C(O)CCS

Sequence of Vasopressin V1a receptor (P37288 whole entry): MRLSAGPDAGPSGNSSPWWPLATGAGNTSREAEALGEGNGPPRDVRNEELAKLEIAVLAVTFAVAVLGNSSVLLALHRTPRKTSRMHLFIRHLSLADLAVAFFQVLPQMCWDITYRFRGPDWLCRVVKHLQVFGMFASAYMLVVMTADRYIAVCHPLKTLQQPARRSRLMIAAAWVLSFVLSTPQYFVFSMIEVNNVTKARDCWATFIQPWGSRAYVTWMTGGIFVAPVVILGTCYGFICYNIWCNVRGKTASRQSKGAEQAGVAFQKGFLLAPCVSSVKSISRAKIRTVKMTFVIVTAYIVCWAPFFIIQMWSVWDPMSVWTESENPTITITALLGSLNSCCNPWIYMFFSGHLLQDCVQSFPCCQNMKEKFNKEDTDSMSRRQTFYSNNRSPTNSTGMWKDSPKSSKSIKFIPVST

For the compound `CC[C@H](C)[C@@H]1NC(=O)[C@H](Cc2ccc(O)cc2)NC(=O)CCSSC[C@@H](C(=O)N2CCC[C@H]2C(=O)N[C@@H](CC(C)C)C(=O)NCC(N)=O)NC(=O)[C@H](CC(N)=O)NC(=O)[C@H](CO)NC1=O` ([Mpa]YISNCPLG-NH2; disulfide 1-6), the EC50 – broadly, the concentration giving half of the maximal effect – was 0.072 nM on Oxytocin receptor, > 100 nM on Vasopressin V1a receptor and 8.9 nM on Vasopressin V1b receptor. In addition, the Ratio EC50 is > 1000 in the assay filed under Homo sapiens [1] and 120 in the assay listed under Homo sapiens [2].
For `CC[C@H](C)[C@@H]1NC(=O)[C@H](Cc2ccc(O)cc2)NC(=O)CCSSC[C@@H](C(=O)N2CCC[C@H]2C(=O)N[C@@H](CC(C)C)C(=O)N(C)CC(N)=O)NC(=O)[C@H](CC(N)=O)NC(=O)[C@H](CCC(N)=O)NC1=O` the same measures were 0.12 nM, > 100 nM, > 100 nM, > 100 and > 100.
Turning to `CC(C)C[C@H](NC(=O)[C@@H]1CCCN1C(=O)[C@@H]1CSSCCC(=O)N[C@@H](Cc2ccc(O)cc2)C(=O)N[C@@H](C)C(=O)N[C@@H](CCC(N)=O)C(=O)N[C@@H](CC(N)=O)C(=O)N1)C(=O)NCC(N)=O` ([Mpa]YAQNCPLG-NH2; disulfide 1-6), the concentration for a half-maximal effect (EC50) is 4.4 nM on Oxytocin receptor, > 100 nM at Vasopressin V1a receptor and > 100 nM at Vasopressin V1b receptor. Moreover, the Ratio EC50 in the assay filed under Homo sapiens [1] and in the assay filed under Homo sapiens [2] was > 10 each time.
Take `CC[C@H](C)[C@@H]1NC(=O)[C@H](Cc2ccc(O)cc2)NC(=O)CCSSC[C@@H](C(=O)N[C@@H](CCCNC(=N)N)C(=O)N[C@@H](CC(C)C)C(=O)NCC(N)=O)NC(=O)[C@H](CC(N)=O)NC(=O)[C@H](CCC(N)=O)NC1=O` ([Mpa]YIQNCRLG-NH2; disulfide 1-6): the EC50 at Oxytocin receptor was 1.5 nM; at Vasopressin V1a receptor, > 100 nM; at Vasopressin V1b receptor, > 100 nM. Besides, the Ratio EC50 in the assay listed under Homo sapiens [1] and in the assay filed under Homo sapiens [2] was > 10 throughout.
As for `CC[C@H](C)[C@@H]1NC(=O)[C@H](Cc2ccc(O)cc2)NC(=O)CCCSC[C@@H](C(=O)N2C[C@H](O)C[C@H]2C(=O)N[C@@H](CC(C)(C)C)C(=O)NCC(N)=O)NC(=O)[C@H](CC(N)=O)NC(=O)[C@H](CCC(N)=O)NC1=O` (YIQNC[Hyp][tBuAla]G-NH2; linker N-5 via X1), the figures for the EC50 at Oxytocin receptor, at Vasopressin V1a receptor and on Vasopressin V1b receptor were 0.0072 nM, > 100 nM and > 100 nM, respectively. The Ratio EC50 in the assay filed under Homo sapiens [1] and in the assay filed under Homo sapiens [2] was > 10000 throughout.
In the case of `CC[C@H](C)[C@@H]1NC(=O)[C@H](CC(C)C)NC(=O)CCSSC[C@@H](C(=O)N2CCC[C@H]2C(=O)N[C@@H](CC(C)C)C(=O)NCC(N)=O)NC(=O)[C@H](CC(N)=O)NC(=O)[C@H](CCC(N)=O)NC1=O` ([Mpa]LIQNCPLG-NH2; disulfide 1-6), the EC50 at Oxytocin receptor is 3.6 nM; on Vasopressin V1a receptor, > 100 nM; on Vasopressin V1b receptor it was > 100 nM. The Ratio EC50 in the assay listed under Homo sapiens [1] and in the assay filed under Homo sapiens [2] was > 10 throughout.
For the compound `CC[C@H](C)[C@@H]1NC(=O)[C@H](Cc2ccc(O)cc2)NC(=O)CCSSC[C@@H](C(=O)N2CCC[C@H]2C(=O)N[C@@H](Cc2ccccc2)C(=O)NCC(N)=O)NC(=O)[C@H](CC(N)=O)NC(=O)[C@H](CCC(N)=O)NC1=O` ([Mpa]YIQNCPFG-NH2; disulfide 1-6), the results for the EC50 on Oxytocin receptor, on Vasopressin V1a receptor and on Vasopressin V1b receptor were 0.054 nM, > 100 nM and 2.4 nM, respectively. The Ratio EC50 was > 1000 in the assay filed under Homo sapiens [1] and 44 in the assay listed under Homo sapiens [2].
For `CC[C@H](C)[C@@H]1NC(=O)[C@H](Cc2ccc(O)cc2)NC(=O)CCSSC[C@@H](C(=O)N2CCC[C@H]2C(=O)N[C@@H](CC(C)C)C(=O)NCC(N)=O)NC(=O)[C@H](CO)NC(=O)[C@H](CCC(N)=O)NC1=O` ([Mpa]YIQSCPLG-NH2; disulfide 1-6) the same measures were 12 nM, > 100 nM, > 100 nM, > 8 and > 8.
The corresponding values for `CC[C@H](C)[C@@H]1NC(=O)[C@H](Cc2ccc(O)cc2)NC(=O)CCSSC[C@@H](C(=O)N2CCC[C@H]2C(=O)N[C@H](C(=O)NCC(N)=O)C(C)C)NC(=O)[C@H](CC(N)=O)NC(=O)[C@H](CCC(N)=O)NC1=O` ([Mpa]YIQNCPVG-NH2; disulfide 1-6) are 0.014 nM, 5.1 nM, 1.3 nM, 360 and 93.
The corresponding values for `CC(C)C[C@H](NC(=O)[C@@H]1CCCN1C(=O)[C@@H]1CSSCCC(=O)N[C@@H](Cc2ccc(O)cc2)C(=O)N[C@@H](CO)C(=O)N[C@@H](CCC(N)=O)C(=O)N[C@@H](CC(N)=O)C(=O)N1)C(=O)NCC(N)=O` ([Mpa]YSQNCPLG-NH2; disulfide 1-6) are 40 nM, > 100 nM, > 100 nM, > 2 and > 2.
`CC[C@H](C)[C@@H]1NC(=O)[C@H](Cc2ccc(O)cc2)NC(=O)CCC(=O)NC[C@@H](C(=O)N2C[C@H](O)C[C@H]2C(=O)N[C@@H](CC(C)C)C(=O)NNC(N)=O)NC(=O)[C@H](CC(N)=O)NC(=O)[C@H](CCC(N)=O)NC1=O` (YIQN[Dap][Hyp]L[azaGly]-NH2; linker N-5 via Suc): the 50% effective concentration (EC50) on Oxytocin receptor was 0.031 nM; on Vasopressin V1a receptor it was > 100 nM; on Vasopressin V1b receptor it was > 100 nM. Besides, the Ratio EC50 in the assay listed under Homo sapiens [1] and in the assay filed under Homo sapiens [2] was > 1000 in each case.
For the compound `CC[C@H](C)[C@@H]1NC(=O)[C@H](Cc2ccc(O)cc2)NC(=O)CCSSC[C@@H](C(=O)N2CCC[C@H]2C(=O)N[C@@H](CC(C)C)C(=O)NCC(N)=O)NC(=O)[C@H](CC(N)=O)NC(=O)[C@H](C)NC1=O` ([Mpa]YIANCPLG-NH2; disulfide 1-6), the results for the EC50 at Oxytocin receptor, on Vasopressin V1a receptor and on Vasopressin V1b receptor were 0.24 nM, > 100 nM and 69 nM, respectively. The Ratio EC50 in the assay filed under Homo sapiens [1] was > 100; in the assay filed under Homo sapiens [2], 290.
For `CC[C@H](C)[C@@H]1NC(=O)[C@H](Cc2ccc(O)cc2)NC(=O)CCSSC[C@@H](C(=O)N2CCC[C@H]2C(=O)N[C@@H](CC2CCCCC2)C(=O)NCC(N)=O)NC(=O)[C@H](CC(N)=O)NC(=O)[C@H](CCC(N)=O)NC1=O` the same measures were 0.01 nM, > 100 nM, 1.4 nM, > 1000 and 140.
`CC[C@H](C)[C@@H]1NC(=O)[C@H](Cc2ccc(O)cc2)NC(=O)CCSSC[C@@H](C(=O)N2CCC[C@H]2C(=O)N[C@@H](CC(C)C)C(=O)NCC(N)=O)NC(=O)[C@H](CC(N)=O)NC(=O)[C@H](Cc2ccccc2)NC1=O` ([Mpa]YIFNCPLG-NH2; disulfide 1-6): the EC50 on Oxytocin receptor is 22 nM; on Vasopressin V1a receptor it was > 100 nM; at Vasopressin V1b receptor, > 100 nM. Besides, the Ratio EC50 in the assay listed under Homo sapiens [1] and in the assay listed under Homo sapiens [2] was > 4 throughout.
On to `CC[C@H](C)[C@@H]1NC(=O)[C@H](Cc2ccc(O)cc2)NC(=O)CCSSC[C@@H](C(=O)N2CCC[C@H]2C(=O)N[C@@H](CC(C)C)C(=O)NCC(N)=O)NC(=O)[C@H](CC(N)=O)NC(=O)[C@H](CCCNC(=N)N)NC1=O` ([Mpa]YIRNCPLG-NH2; disulfide 1-6), for which the results for the EC50 on Oxytocin receptor, on Vasopressin V1a receptor and on Vasopressin V1b receptor were 1.2 nM, > 100 nM and 9 nM, respectively. Also, the Ratio EC50 was > 10 in the assay filed under Homo sapiens [1] and 7.5 in the assay listed under Homo sapiens [2].
For `CC[C@H](C)[C@@H]1NC(=O)[C@H](Cc2ccc(O)cc2)NC(=O)CCC(=O)NC[C@@H](C(=O)N2C[C@H](O)C[C@H]2C(=O)N[C@@H](CC(C)C)C(=O)NCC(N)=O)NC(=O)[C@H](CC(N)=O)NC(=O)[C@H](CCC(N)=O)NC1=O` (YIQN[Dap][Hyp]LG-NH2; linker N-5 via Suc) the same measures were 0.013 nM, > 100 nM, > 100 nM, > 1000 and > 1000.
The corresponding values for `CC[C@H](C)[C@@H]1NC(=O)[C@H](Cc2ccc(O)cc2)NC(=O)CCSSC[C@@H](C(=O)N[C@@H](CC(C)C)C(=O)N[C@@H](CC(C)C)C(=O)NCC(N)=O)NC(=O)[C@H](CC(N)=O)NC(=O)[C@H](CCC(N)=O)NC1=O` ([Mpa]YIQNCLLG-NH2; disulfide 1-6) are 3.4 nM, > 100 nM, > 100 nM, > 10 and > 10.

The values are drawn from ChEMBL document CHEMBL4017483, “Potent and selective oxytocin receptor agonists without disulfide bridges” (Bioorg Med Chem Lett, 2017).
